According to ChEMBL document CHEMBL1201862, “PubChem BioAssay data set” (2004):
Active and inactive are the calls of the source.

Legend:
[1] = alpha-synuclein stem-loop luciferase translation blockers – H4 neuroglioma cells, luminescence, confirmation (AID 1988); format: functional, cell-based
[2] = Luminescence Cell-Based Dose Response HTS to Identify Inhibitors of 5'UTR Stem-Loop Driven Prion Protein mRNA Translation in H4 Neuroglioblastoma Cells. [Related pubchem assays: 1827 (Project Summary), 1813 (Primary HTS)]; format: functional
[3] = luciferase reporter signal suppression in cells – H4 neuroglioma cells, luminescence, dose response (AID 1990); format: functional, cell-based
Cytochrome P450 3A4 = Cytochrome P450 3A4 (Homo sapiens, UniProt P08684);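 note: CYP3A4 tested as one member of a cytochrome P450 panel screen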
Sequence of Cytochrome P450 3A4 (P08684 whole entry): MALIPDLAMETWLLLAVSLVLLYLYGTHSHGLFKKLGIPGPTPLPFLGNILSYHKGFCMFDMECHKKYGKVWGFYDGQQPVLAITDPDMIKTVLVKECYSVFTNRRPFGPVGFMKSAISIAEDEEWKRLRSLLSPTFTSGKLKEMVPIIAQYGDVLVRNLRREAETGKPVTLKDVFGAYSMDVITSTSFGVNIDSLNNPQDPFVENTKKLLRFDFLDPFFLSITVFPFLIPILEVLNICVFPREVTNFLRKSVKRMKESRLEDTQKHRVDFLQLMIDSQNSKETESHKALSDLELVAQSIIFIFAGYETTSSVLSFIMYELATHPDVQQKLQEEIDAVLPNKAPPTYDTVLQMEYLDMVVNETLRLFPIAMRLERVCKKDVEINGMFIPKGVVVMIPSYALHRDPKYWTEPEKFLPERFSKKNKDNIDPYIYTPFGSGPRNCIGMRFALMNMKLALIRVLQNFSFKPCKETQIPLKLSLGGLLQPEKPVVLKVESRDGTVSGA

Cytochrome P450 2D6 = Cytochrome P450 2D6 (Homo sapiens, UniProt P10635);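 note: CYP2D6 member of a cytochrome P450 panel assay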
Sequence of Cytochrome P450 2D6 (P10635 whole entry): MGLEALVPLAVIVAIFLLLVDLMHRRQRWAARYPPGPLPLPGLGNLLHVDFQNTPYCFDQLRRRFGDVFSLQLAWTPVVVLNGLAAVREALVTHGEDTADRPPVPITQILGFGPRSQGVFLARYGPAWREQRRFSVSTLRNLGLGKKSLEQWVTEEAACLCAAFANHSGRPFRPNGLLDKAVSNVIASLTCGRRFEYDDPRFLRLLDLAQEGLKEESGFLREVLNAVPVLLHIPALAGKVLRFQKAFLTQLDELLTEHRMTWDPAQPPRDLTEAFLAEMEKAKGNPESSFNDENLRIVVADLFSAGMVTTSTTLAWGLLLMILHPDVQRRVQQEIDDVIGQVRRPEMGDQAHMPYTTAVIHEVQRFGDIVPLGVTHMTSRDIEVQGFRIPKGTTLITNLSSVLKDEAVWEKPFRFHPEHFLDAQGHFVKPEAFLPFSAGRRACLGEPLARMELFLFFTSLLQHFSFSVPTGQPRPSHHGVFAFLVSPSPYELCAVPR

Cytochrome P450 2C19 = Cytochrome P450 2C19 (Homo sapiens, UniProt P33261); experiment: Cytochrome panel assay with activity outcomes. Panel member name: p450-cyp2c19 Compounds with AC50 equal or less than 10 uM are considered active; format: functional; conditions: read-out: AC50
Sequence of Cytochrome P450 2C19 (P33261 whole entry): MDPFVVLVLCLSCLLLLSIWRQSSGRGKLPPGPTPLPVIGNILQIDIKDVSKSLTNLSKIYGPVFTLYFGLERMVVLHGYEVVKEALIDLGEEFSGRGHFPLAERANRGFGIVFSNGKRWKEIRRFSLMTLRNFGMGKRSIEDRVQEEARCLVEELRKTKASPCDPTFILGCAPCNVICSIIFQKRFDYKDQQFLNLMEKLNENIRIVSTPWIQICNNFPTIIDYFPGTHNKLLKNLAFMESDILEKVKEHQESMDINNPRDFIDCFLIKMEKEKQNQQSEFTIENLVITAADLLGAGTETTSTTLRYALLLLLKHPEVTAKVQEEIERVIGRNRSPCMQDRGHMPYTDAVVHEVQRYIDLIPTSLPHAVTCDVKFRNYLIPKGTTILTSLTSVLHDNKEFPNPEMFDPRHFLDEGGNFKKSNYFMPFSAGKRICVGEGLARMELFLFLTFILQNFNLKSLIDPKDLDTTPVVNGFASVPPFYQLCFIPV

[4] = NIH-3T3 fibroblast cytotoxicity, dose response, cytotoxicity control, cell-based, fluorescence, Alamar Blue, secondary assay (AID 2327); format: functional;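 note: NIH-3T3 mouse fibroblasts cultured with fluconazole at 8 µg/mL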
Cytochrome P450 2C9 = Cytochrome P450 2C9 (Homo sapiens, UniProt P11712)
Sequence of Cytochrome P450 2C9 (P11712 whole entry): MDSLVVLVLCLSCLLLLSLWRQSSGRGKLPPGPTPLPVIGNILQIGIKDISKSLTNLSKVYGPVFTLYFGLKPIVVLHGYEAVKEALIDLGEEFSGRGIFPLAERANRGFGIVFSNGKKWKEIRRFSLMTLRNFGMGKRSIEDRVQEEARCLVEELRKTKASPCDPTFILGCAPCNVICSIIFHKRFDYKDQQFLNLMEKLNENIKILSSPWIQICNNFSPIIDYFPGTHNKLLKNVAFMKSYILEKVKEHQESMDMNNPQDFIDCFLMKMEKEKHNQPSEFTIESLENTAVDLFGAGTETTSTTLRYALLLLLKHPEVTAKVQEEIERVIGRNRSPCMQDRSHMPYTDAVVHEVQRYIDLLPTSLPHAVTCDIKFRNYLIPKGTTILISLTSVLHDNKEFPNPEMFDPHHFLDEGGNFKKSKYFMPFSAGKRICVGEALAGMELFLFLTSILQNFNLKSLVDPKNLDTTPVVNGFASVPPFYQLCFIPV

[5] = target: Luciferin 4-monooxygenase (Photinus pyralis, UniProt P08659); experiment: inhibition of purified Photinus pyralis luciferase – biochemical, luminescence, dose response (AID 1891)
Sequence of Luciferin 4-monooxygenase (P08659 whole entry): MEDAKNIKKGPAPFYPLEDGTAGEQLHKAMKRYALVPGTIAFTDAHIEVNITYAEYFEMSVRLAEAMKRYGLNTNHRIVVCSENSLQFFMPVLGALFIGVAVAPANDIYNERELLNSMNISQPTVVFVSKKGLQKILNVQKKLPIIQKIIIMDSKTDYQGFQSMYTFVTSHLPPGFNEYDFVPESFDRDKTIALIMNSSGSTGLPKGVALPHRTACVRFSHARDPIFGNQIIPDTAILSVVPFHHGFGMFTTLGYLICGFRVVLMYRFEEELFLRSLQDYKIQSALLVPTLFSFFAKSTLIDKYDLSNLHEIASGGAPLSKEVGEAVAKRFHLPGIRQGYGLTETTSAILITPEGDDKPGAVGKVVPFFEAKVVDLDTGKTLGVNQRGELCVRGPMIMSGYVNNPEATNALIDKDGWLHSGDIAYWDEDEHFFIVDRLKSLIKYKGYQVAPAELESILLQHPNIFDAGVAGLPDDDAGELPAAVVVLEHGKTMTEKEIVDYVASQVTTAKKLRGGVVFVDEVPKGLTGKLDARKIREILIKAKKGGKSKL

[6] = Luminescence Cell-Based Dose Confirmation HTS to Identify Inhibitors of Platelet Dense Granule Release. [Related pubchem assays: 1663 (Primary HTS), 1678 (Summary of Project)]; format: functional
Cytochrome P450 1A2 = target: T1, Cytochrome P450 1A2 (Homo sapiens, UniProt P05177);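 note: PubChem cytochrome P450 panel assay, CYP1A2 panel member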
T1 sequence (P05177 whole entry): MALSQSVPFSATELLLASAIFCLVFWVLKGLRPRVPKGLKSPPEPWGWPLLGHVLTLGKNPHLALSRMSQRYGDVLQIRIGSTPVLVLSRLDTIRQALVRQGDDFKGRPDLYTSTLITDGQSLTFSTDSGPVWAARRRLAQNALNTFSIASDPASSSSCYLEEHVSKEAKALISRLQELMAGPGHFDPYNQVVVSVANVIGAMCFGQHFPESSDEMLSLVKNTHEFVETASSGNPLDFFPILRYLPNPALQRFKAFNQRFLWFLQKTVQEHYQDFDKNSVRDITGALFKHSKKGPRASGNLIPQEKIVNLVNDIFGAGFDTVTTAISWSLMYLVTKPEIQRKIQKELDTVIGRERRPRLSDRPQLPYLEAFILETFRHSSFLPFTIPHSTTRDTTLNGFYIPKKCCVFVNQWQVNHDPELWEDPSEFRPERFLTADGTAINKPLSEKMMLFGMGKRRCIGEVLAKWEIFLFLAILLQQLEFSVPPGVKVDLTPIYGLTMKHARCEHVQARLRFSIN

[7] = target: T2, Corticotropin-releasing factor receptor 2/Corticotropin-releasing factor-binding protein (Homo sapiens, UniProt P24387+Q13324); experiment: activators of CRF receptor 2 with binding protein – uHTS hits, confirmation (AID 602473); format: functional; conditions: read-out: EC50_Mean
T2 sequence (Q13324 whole entry): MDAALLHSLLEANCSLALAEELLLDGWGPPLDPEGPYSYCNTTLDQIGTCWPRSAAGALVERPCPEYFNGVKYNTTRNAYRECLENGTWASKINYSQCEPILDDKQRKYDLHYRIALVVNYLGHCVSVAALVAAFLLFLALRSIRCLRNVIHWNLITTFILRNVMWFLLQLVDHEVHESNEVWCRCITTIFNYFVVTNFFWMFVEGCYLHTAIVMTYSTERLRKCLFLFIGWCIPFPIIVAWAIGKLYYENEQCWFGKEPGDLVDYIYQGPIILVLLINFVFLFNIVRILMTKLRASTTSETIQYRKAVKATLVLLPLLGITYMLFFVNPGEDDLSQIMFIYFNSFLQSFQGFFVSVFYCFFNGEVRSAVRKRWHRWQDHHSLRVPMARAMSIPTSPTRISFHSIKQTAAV
T2 sequence (P24387 whole entry): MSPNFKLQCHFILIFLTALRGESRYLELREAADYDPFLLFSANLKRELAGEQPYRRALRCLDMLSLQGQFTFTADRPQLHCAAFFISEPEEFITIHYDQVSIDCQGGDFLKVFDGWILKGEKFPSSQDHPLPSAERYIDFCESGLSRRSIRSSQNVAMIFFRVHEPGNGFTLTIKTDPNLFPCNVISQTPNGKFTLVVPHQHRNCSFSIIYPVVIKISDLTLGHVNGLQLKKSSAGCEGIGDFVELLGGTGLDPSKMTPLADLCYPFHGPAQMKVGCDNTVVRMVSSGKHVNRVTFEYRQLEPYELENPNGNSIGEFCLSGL

[8] = target: T2, Corticotropin-releasing factor receptor 2/Corticotropin-releasing factor-binding protein; experiment: Dose Response confirmation of uHTS hits for small molecule antagonists of the CRF-binding protein and CRF-R2 receptor complex.; format: functional; conditions: read-out: IC50_Mean
H4 = experiment: Luminescence Cell-Based Dose Response HTS to Identify Activators of 5'UTR Stem-Loop Driven Prion Protein mRNA Translation in H4 Neuroglioblastoma Cells. [Related pubchem assays: 1829 (Project Summary), 1814 (Primary HTS)]; format: functional; conditions: Homo sapiens
[9] = Luminescence Cell-Based Dose Confirmation HTS to Identify Activators of 5'UTR Stem-Loop Driven Alpha-Synuclein mRNA Translation in H4 Neuroglioblastoma Cells. [Related pubchem assays: 1829 (Project Summary), 1814 (Primary HTS)]; format: functional
[10] = Luminescence Cell-Based Dose Response HTS to Identify Activators of Luciferase Translation or Activity in H4 […] Cells. [Related pubchem assays: 1829 (Project Summary), 1814 (Primary HTS)]; format: functional
INS1 = experiment: INS-1E survival protection against cytokine death – cell-based, luminescence, retest, dose response (AID 449756); format: functional; conditions: Rattus norvegicus;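 note: cell death triggered by IL-1 beta plus TNF-alpha plus IFN-gamma mixture; protective hits raise ATP signal compared with cytokine alone wells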
Paired box protein Pax-8 = Paired box protein Pax-8 (Homo sapiens, UniProt Q06710); experiment: PAX8 transcriptional activity inhibition in RMG-I – RMG-I cells, luciferase, cherry-pick, dose response (AID 687027); format: functional, cell-based;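 note: luciferase reporter driven by Pax8 target thyroperoxidase promoter measured by SteadyGlo luminescence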
Sequence of Paired box protein Pax-8 (Q06710 whole entry): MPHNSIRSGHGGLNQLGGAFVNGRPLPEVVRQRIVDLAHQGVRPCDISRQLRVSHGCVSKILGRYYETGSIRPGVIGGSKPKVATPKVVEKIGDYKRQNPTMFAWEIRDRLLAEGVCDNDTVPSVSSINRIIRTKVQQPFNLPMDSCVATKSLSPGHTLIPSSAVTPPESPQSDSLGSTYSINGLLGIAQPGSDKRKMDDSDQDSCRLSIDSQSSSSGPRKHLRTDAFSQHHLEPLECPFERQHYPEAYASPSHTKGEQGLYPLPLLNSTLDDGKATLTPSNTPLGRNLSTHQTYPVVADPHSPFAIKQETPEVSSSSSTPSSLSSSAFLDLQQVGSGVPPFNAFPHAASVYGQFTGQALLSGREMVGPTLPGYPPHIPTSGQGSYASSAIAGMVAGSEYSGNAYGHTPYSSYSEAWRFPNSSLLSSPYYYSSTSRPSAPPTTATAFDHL

## CC1C(C#N)=C(N)OC2=C1C(=O)CC(C)(C)C2 (stereo unspecified)
[1]
  EC50: 19.8 µM (active)
[2]
  EC50: > 120 µM (not active)
[3]
  EC50: > 120 µM (not active)

## CC(NC(=O)c1cccc(F)c1)C(c1cccs1)N1CCN(C)CC1 (stereo unspecified)
Cytochrome P450 3A4
  AC50: 15.8 µM (inconclusive)
Cytochrome P450 2D6
  AC50: 15.8 µM (inconclusive)
Cytochrome P450 2C19
  AC50: 31.6 µM (inconclusive)

## Cc1cc(Cl)ccc1OCc1cn2cccnc2n1
[4]
  EC50: > 160 µM (inactive)

## COc1ccc2c(c1)O[C@@H](c1cccc(C(F)(F)F)c1)[C@H](O)C2=O
[1]
  EC50: > 120 µM (not active)
[2]
  EC50: > 120 µM (not active)
[3]
  EC50: > 120 µM (not active)

## COCCn1c(=O)c(-c2ccc(F)cc2)nc2cnc(N(C)C)nc21
Cytochrome P450 2D6
  AC50: 0.631 µM (inconclusive)
Cytochrome P450 2C9
  AC50: 12.6 µM (inconclusive)

## CN(C)S(=O)(=O)c1cccc(NC(=O)CSc2nnnn2-c2ccccc2)c1
[5]
  EC50: > 112 µM (not active)
[6]
  EC50: > 112 µM (not active)

## FC(F)(F)c1ccccc1-c1cc(NCCN2CCOCC2)ncn1
Cytochrome P450 2D6
  AC50: 39.8 µM (inconclusive)
Cytochrome P450 1A2
  AC50: 12.6 µM (inconclusive)

## CC(C)CNC(=O)COc1ccccc1[N+](=O)[O-]
[5]
  EC50: > 112 µM (not active)
[6]
  EC50: 18.7 µM (active)

## COc1ccc(OC)c(-c2cc(C(=O)O)c3cc4ccccc4cc3n2)c1
Cytochrome P450 2C9
  AC50: 3.16 µM (inconclusive)
[7]
  EC50: > 53 µM (inactive)
[8]
  IC50: > 47.1 µM (inactive)

## Cc1ccc(Cl)cc1NC(=O)c1ccc(Cn2cc(Cl)cn2)cc1
[1]
  EC50: 12.2 µM (active)
[2]
  EC50: 13.7 µM (active)
[3]
  EC50: 14.4 µM (active)

## O=C(NCCc1csc(-c2cccnc2)n1)c1cccs1
[5]
  EC50: > 112 µM (not active)
[6]
  EC50: > 112 µM (not active)

## COc1cccc(-c2noc(C3CCCN(C(=O)c4ccccc4OC)C3)n2)c1 (stereo unspecified)
[5]
  EC50: > 112 µM (not active)
[6]
  EC50: > 112 µM (not active)

## O=C(Oc1ccc([N+](=O)[O-])cc1)N1CCC(N2CCCCC2)CC1
Cytochrome P450 2D6
  AC50: 39.8 µM (inconclusive)
Cytochrome P450 1A2
  AC50: 20 µM (inconclusive)

## Cc1cc(NC(=O)c2c(F)cccc2F)n(-c2nc3ccccc3[nH]2)n1
Cytochrome P450 3A4
  AC50: 3.55 µM (inconclusive)
Cytochrome P450 2D6
  AC50: 39.8 µM (inconclusive)
Cytochrome P450 2C9
  AC50: 4.47 µM (inconclusive)

## CCN(CC)c1nc(O)nc(N(CC)CC)n1
[1]
  EC50: 44.7 µM (active)
[2]
  EC50: > 120 µM (not active)
[3]
  EC50: > 120 µM (not active)

## COC(=O)C1(C)CN(S(=O)(=O)c2ccc(C)cc2)c2cc(OC)ccc2C1=O (stereo unspecified)
[5]
  EC50: > 112 µM (not active)
[6]
  EC50: > 112 µM (not active)

## CCOC(=O)c1ccc(NC(=O)CSc2nc3c(c(=O)n2C)SC(C)C3)cc1 (stereo unspecified)
[5]
  EC50: > 112 µM (not active)
[6]
  EC50: > 112 µM (not active)

## C=CCOc1c(CNc2cccc(C(=O)O)c2)cccc1OCC
[7]
  EC50: > 53 µM (inactive)
[8]
  IC50: > 47.1 µM (inactive)

## CC1(C)Cc2c(C#N)c(NCC3CCCO3)nc(-c3ccco3)c2CO1 (stereo unspecified)
[7]
  EC50: > 53 µM (inactive)
[8]
  IC50: > 47.1 µM (inactive)

## COCCn1c(SCc2nnc(-c3ccccc3)o2)nc2sc3c(c2c1=O)CCC3
[7]
  EC50: > 53 µM (inactive)
[8]
  IC50: > 47.1 µM (inactive)

## COc1cc(C#Cc2c(-c3ccccc3)n(C)c3ccccc23)cc(OC)c1
[7]
  EC50: > 53 µM (inactive)
[8]
  IC50: > 47.1 µM (inactive)

## Cc1nc2sccn2c(=O)c1S(=O)(=O)N1CCN(c2cccc(Cl)c2)CC1
[5]
  EC50: > 112 µM (not active)
[6]
  EC50: > 112 µM (not active)

## CC(C)(C)c1ccc(Oc2ccc(NC(=O)c3ccccc3C(=O)O)cn2)cc1
[1]
  EC50: 11.6 µM (active)
[2]
  EC50: 12 µM (active)
[3]
  EC50: 11 µM (active)

## Cc1cc(=O)oc2cc(OCCSCCN3CCOCC3)ccc12
[5]
  EC50: > 112 µM (not active)
[6]
  EC50: > 112 µM (not active)

## COC(=O)/C=C1/SC(NNC(=O)c2ccc(Cl)cc2Cl)=NC1=O
[7]
  EC50: > 53 µM (inactive)
[8]
  IC50: > 47.1 µM (inactive)

## O=C(COc1ccccc1C(=O)c1cnn(-c2ccccc2)c1)Nc1ccc2ccccc2c1
H4
  EC50: 7.44 µM (active)
[9]
  EC50: 5.67 µM (active)
[7]
  EC50: > 53 µM (inactive)
[10]
  EC50: 6.97 µM (active)
[8]
  IC50: > 47.1 µM (inactive)

## c1ccc(-[n+]2nc(Nc3cccc4ccccc34)sc2-c2c3ccccc3cc3ccccc23)cc1
INS1
  AC50: 3.17 µM (active)

## CC(C)(C)C1CCc2c(sc(NC(=O)c3cc(C4CC4)on3)c2C#N)C1 (stereo unspecified)
[5]
  EC50: > 112 µM (not active)
[6]
  EC50: 23.1 µM (active)

## COc1ccccc1Nc1ccc(S(=O)(=O)N2CCCCC2)cc1[N+](=O)[O-]
[7]
  EC50: > 53 µM (inactive)
[8]
  IC50: > 47.1 µM (inactive)

## Nc1nnc(SCc2ccc(Cl)cc2)s1
[5]
  EC50: > 112 µM (not active)
[6]
  EC50: > 112 µM (not active)

## Cc1ccccc1N1CCN(C2CCCN(C(=O)c3cn4c(C)cccc4n3)C2)CC1 (stereo unspecified)
[7]
  EC50: > 53 µM (inactive)
[8]
  IC50: > 47.1 µM (inactive)

## CC(=O)OC(C)(C)/C=C/C(=O)C(C)(O)C1C(O)CC2(C)C3CC=C4C(CC(O)C(=O)C4(C)C)C3(C)C(=O)CC12C (stereo unspecified)
Paired box protein Pax-8
  AC50: < 0.26 µM (active)

## CCOC(=O)C(NCCc1ccc(F)cc1)(NC(=O)CC)C(F)(F)F (stereo unspecified)
INS1
  AC50: > 260 µM (inactive)

## CN(C)P(=O)(NC(=O)c1cccn1C)N(C)C
[7]
  EC50: > 53 µM (inactive)
[8]
  IC50: > 47.1 µM (inactive)

## C=CCO/C(O)=C1\C(C)=NC2(O)c3ccccc3C(=O)C12O (stereo unspecified)
[7]
  EC50: > 53 µM (inactive)
[8]
  IC50: > 47.1 µM (inactive)

## Cc1ccc(NC(=O)COC(=O)c2cccnc2Cl)cc1S(=O)(=O)N1CCOCC1
[7]
  EC50: > 53 µM (inactive)
[8]
  IC50: > 47.1 µM (inactive)

## C[C@@H]1CN([C@@H](C)CO)C(=O)c2cc(NS(=O)(=O)c3ccccc3)ccc2O[C@@H](C)CCCCO[C@@H]1CN(C)Cc1ccc(C(F)(F)F)cc1
Paired box protein Pax-8
  AC50: 5.71 µM (active)

## COc1ccc(NC(=O)Nc2ccc3c(c2)C(=O)N([C@@H](C)CO)C[C@@H](C)[C@@H](CN(C)CC2CCCCC2)OCCCC[C@@H](C)O3)cc1
Paired box protein Pax-8
  AC50: 14.5 µM (active)
